Test results from US10166202B2, “Treatment of hepatic encephalopathy and liver cirrhosis” (Yissum Research Development Company of the Hebrew …, priority 2006, dated 2019).
Entries after “also recorded” stand apart in the source; their conditions may differ.

Legend:
[1] = system: TAA treated mice; assay: Liver function analysis of blood plasma in TAA treated mice; format: in vivo
[2] = system: TAA treated mice; conditions: mouse, in vivo
[3] = system: dopamine; assay: Brain catecholamine (dopamine) measurement by HPLC-ECD in TAA treated mice; format: in vivo
Method: (vi) Catecholamine measurements. Catecholamines were measured as described previously (Avraham et al, 1996). The assay for dopamine was performed by High Pressure Liquid Chromatography (HPLC) separation and detection using HPLC-electrochemical detection (ECD). Values are presented as concentration (ng/g tissue).

[4] = system: AMPK; assay: Hippocampal AMPK phosphorylation (immunoblot) in control mice; format: in vivo; conditions: for hippocampal AMPK phosphorylation (activated AMPK): control mice
[5] = system: CB1 and the CB2 receptors; conditions: previously known; cited from earlier work
[6] = system: TAA treated mice; assay: Eight-arm maze (cognitive function) in TAA treated mice; format: in vivo
[7] = system: AMPK; assay: Hippocampal AMPK phosphorylation (immunoblot) in TAA-induced liver failure mice; format: in vivo
[8] = system: TAA treated mice; assay: Activity test in TAA treated mice; format: in vivo
[9] = system: TAA treated mice; assay: Neurological score in TAA treated mice; format: in vivo
[10] = system: BDL mice; assay: Motor function in chronic liver failure induced by bile duct ligation (BDL); format: in vivo; conditions: BDL mice relative to sham; cannabidiol 5 mg/kg i.p. daily, evaluated 2 weeks post-surgery
[11] = system: malondialdehyde; assay: Oxidative stress (malondialdehyde) in liver tissue of BDL mice; format: in vivo; conditions: cannabidiol 5 mg/kg i.p. daily
[12] = system: BDL mice; assay: Cognitive function in chronic liver failure induced by bile duct ligation (BDL); format: in vivo; conditions: BDL mice relative to sham; cannabidiol 5 mg/kg i.p. daily, evaluated 2 weeks post-surgery
[13] = system: IL-1β mRNA; assay: Hippocampal IL-1β mRNA level by RT-PCR in BDL mice; format: in vivo; conditions: cannabidiol 5 mg/kg i.p. daily for 3 weeks
[14] = system: glial cells; parameters: species or system mice; conditions: mouse, in vivo
[15] = system: TAA treated CB2-KO mice; assay: Blood ALT and AST levels in TAA treated CB2-KO mice; format: in vivo
Method: (ii) Mice. Eight- to 10-week old female Sabra mice (29-32 g), obtained from the animal facility of the Hebrew University, Israel, were assigned at random to different groups of 10 mice per cage and were used in all experiments. All cages contained wood-chip bedding and were placed in a temperature-controlled room at 22° C., on a 12 h light/dark cycle (lights on at 07.00 a.m.). The mice had free access to water 24 h a day. The food provided was Purina chow, the animals were maintained in the animal facility (SPF unit) of the Hebrew University Hadassah Medical School, Jerusalem. CB-2 KO mice were provided by Prof. Zimmer, Institute of Molecular Psychiatry, University of Bonn, Germany.
(xi) Liver function analysis. Ammonia, bilirubin, ALT, AST, GGT and glucose were analyzed using standard analytical methods in the Hadassah Hospital Biochemistry Department, Jerusalem, Israel.

SR144528
alanine transaminase (ALT) level ([1]; TAA treated mice, blood): significantly reduced | aspartate aminotransferase (AST) level ([1]; TAA treated mice, blood): significantly reduced | Inflammation (frequency of cells in the liver) [2]: non-significant changes | Regeneration (frequency of cells in the liver) [2]: Increased

CCCCCc1cc(O)c2c(c1)OC(C)(C)[C@@H]1CCC(C)=C[C@@H]21 [THC, (−)-(6aR,10aR)-6,6,9-trimethyl-3-pentyl-6a,7,8,10a-tetrahydro-6H-benzo[c]chromen-1-ol]
brain dopamine concentration [3]: restored levels to normal | hippocampal AMPK phosphorylation (activated AMPK) ([4]; higher concentrations of THC (up to 10 mg/kg)): dose dependent elevation in activated enzyme | hippocampal AMPK phosphorylation (activated AMPK) ([4]; low levels of THC (less than 0.1 mg/kg)): reduced the level of activated AMPK | quantity of THC required to activate AMPK ([4]; healthy animals): 10 mg/kg | affinity to CB1 versus CB2 receptors [5]: about equal affinity | alanine transaminase (ALT) level ([1]; mouse, in vivo): Neither AICAR nor THC ameliorated these markers | ammonia level ([1]; mouse, in vivo): no effect | aspartate aminotransferase (AST) level ([1]; mouse, in vivo): Neither AICAR nor THC ameliorated these markers | bilirubin level ([1]; mouse, in vivo): Neither AICAR nor THC ameliorated these markers | gamma-glutamyltransferase (GGT) level ([1]; mouse, in vivo): Neither AICAR nor THC ameliorated these markers | TAA-induced impaired cognitive function (eight arm maze) [6]: improved significantly | hippocampal AMPK phosphorylation (activated AMPK) ([7]; TAA treated mice, 0.01 mg/kg THC): inactivating effect | AMPK activation in brain at end of behavioral studies ([7]; TAA treated mice, 0.1 mg/kg THC daily for 5 days, 0.1 mg/kg): activates AMPK; also recorded: Amplification of AMPK activation | hippocampal AMPK phosphorylation (activated AMPK) ([7]; TAA treated mice, 0.1 mg/kg THC, 0.1 mg/kg): AMPK activation was achieved; also recorded: augmented AMPK activation | quantity of THC required to activate AMPK ([7]; experimental hepatic encephalopathy animals): 0.1 mg/kg | activity performance [8]: restored | neurological score [9]: improved

C=C(C)[C@@H]1CCC(C)=C[C@H]1c1c(O)cc(CCCCC)cc1O [cannabidiol]
motor impairment (motor activity) [10]: restored; also recorded: reversed | oxidative stress in the liver (malondialdehyde) [11]: restored; also recorded: reversed | cognitive impairment (eight arm maze AUC) [12]: restored; also recorded: reversed | IL-1β mRNA level in the hippocampus (normalized to L19 mRNA) [13]: restored; also recorded: reversed

NC(=O)c1ncn([C@@H]2O[C@H](CO)[C@@H](O)[C@H]2O)c1N [AICAR, 5-aminoimidazole-4-carboxamide ribonucleoside]
brain dopamine concentration [3]: restored levels to normal | alanine transaminase (ALT) level ([1]; TAA treated mice, blood): Neither AICAR nor THC ameliorated these markers | aspartate aminotransferase (AST) level ([1]; TAA treated mice, blood): Neither AICAR nor THC ameliorated these markers | ammonia level ([1]; TAA treated mice, blood plasma): no effect | bilirubin level ([1]; TAA treated mice, blood plasma): Neither AICAR nor THC ameliorated these markers | gamma-glutamyltransferase (GGT) level ([1]; TAA treated mice, blood plasma): Neither AICAR nor THC ameliorated these markers | AMPK activation ([7]; TAA treated mice, AICAR treatment): augmented AMPK activation

CCCCCCC(C)(C)c1cc(OC)c([C@@H]2C=C(CO)[C@@H]3C[C@H]2C3(C)C)c(OC)c1 [HU-308]
alanine transaminase (ALT) level ([1]; TAA treated mice, blood): significantly reduced | aspartate aminotransferase (AST) level ([1]; TAA treated mice, blood): significantly reduced | influence of the co-administered agent on the other agent's reduction of ALT and AST levels ([1]; TAA treated mice, co-administration): did not counteract the effect of SR144528 | Inflammation (frequency of cells in the liver) [2]: reduced; also recorded: Decreased | Regeneration (frequency of cells in the liver) [2]: Increased | astrogliosis, direction of change (GFAP staining, hippocampus) [14]: prevented; also recorded: Decrease (p < 0.001)

COc1cc(CNC(=O)CCCC/C=C/C(C)C)ccc1O [capsaicin]
alanine transaminase (ALT) level ([1]; TAA treated mice, blood): significantly reduces | aspartate aminotransferase (AST) level ([1]; TAA treated mice, blood): significantly reduces | TAA-induced impaired cognitive function (eight arm maze) [6]: improved significantly; also recorded: significantly improves | Apoptosis (frequency of cells showing apoptosis/necrosis in the liver) [2]: amelioration of TAA-induced apoptosis/necrosis reached statistical significance; also recorded: Decreased | Inflammation (frequency of cells in the liver) [2]: Decreased | Regeneration (frequency of cells in the liver) [2]: significantly less hepatic regeneration; also recorded: Decreased | astrogliosis, direction of change (GFAP staining, hippocampus) [14]: prevented; also recorded: reduced astrogliosis; also recorded: minimal; also recorded: Decrease (p < 0.001) | activity performance [8]: restored; also recorded: significantly improves | neurological score [9]: improved; also recorded: significantly improves

CCCCC/C=C\C/C=C\C/C=C\C/C=C\CCCC(=O)OC(CO)CO [2-AG, 2-arachidonoylglycerol]
motor impairment (motor activity) [10]: failed to reverse | alanine transaminase (ALT) level ([1]; mouse, in vivo): significantly reduced | aspartate aminotransferase (AST) level ([1]; mouse, in vivo): significantly reduced | influence of the co-administered agent on the other agent's reduction of ALT and AST levels ([1]; mouse, in vivo): did not counteract the effect of SR141716A or SR144528 | Inflammation (frequency of cells in the liver) [2]: Decreased | Regeneration (frequency of cells in the liver) [2]: Increased | cognitive impairment (eight arm maze AUC) [12]: effectively reversed | ALT level [15]: modestly but significantly reduced | AST level [15]: effective in reducing its level

Oc1cc2c(cc1O)CN(C(=S)NCCc1ccc(Cl)cc1)CCC2 [capsazepine]
influence of the co-administered agent on the other agent's reduction of ALT and AST levels ([1]; mouse, in vivo): abolishment of the effect of capsaicin

Cc1c(C(=O)NN2CCCCC2)nn(-c2ccc(Cl)cc2Cl)c1-c1ccc(Cl)cc1 [SR141716A]
alanine transaminase (ALT) level ([1]; mouse, in vivo): significantly reduced | aspartate aminotransferase (AST) level ([1]; mouse, in vivo): significantly reduced | Inflammation (frequency of cells in the liver) [2]: reduced; also recorded: Decreased | Regeneration (frequency of cells in the liver) [2]: Increased | astrogliosis, direction of change (GFAP staining, hippocampus) [14]: prevented; also recorded: Decrease (p < 0.001) | AST level [15]: effective in reducing its level | influence of co-administration on the ALT effect of 2-AG ([15]; 2-AG + SR141716A): blocked the effect of 2-AG | influence of co-administration on the AST effect of 2-AG ([15]; 2-AG + SR141716A): abolished the effect of 2-AG
